This passage reports IC50 results from ChEMBL document CHEMBL3638916, “Substituted 3-arylsulfonyl-pyrazolo[1,5-A]pyrimidines, serotonin 5-HT6 receptor antagonists and methods for the production and use thereof” (2013).

The IC50 is the point on the concentration scale where inhibition reaches its midpoint.

In experiment [1] the target is T1, 5-hydroxytryptamine receptor 6 (Homo sapiens, UniProt P50406). The experiment in a line: Functional Assay: Determination of antagonistic activity of compounds of the general formula 1 towards 5-HT6 receptors. Compounds of the general formula 1 were tested for their ability to prevent 5-HT6 receptors activation by serotonin. HEK 293 cells (cells of human embryo's kidney) with artificially expressed 5-HT6 receptor, activation of which by serotonin leads to increasing the concentration of intracellular cAMP, were used. The level of intracellular cAMP was determined using reagent kit LANCE cAMP (PerkinElmer) according to the method described by the manufacturer of the kit [http://las.perkinelmer.com/content/Manuals/MAN_LANCEcAMP384KitUser.pdf]. Effectiveness of the compounds was estimated by their ability to reduce the level of intracellular cAMP induced by serotonin. Table 4 presents IC50 values for the compounds of general formula 1 in the setting of functional assay for serotonin 5-HT6 receptor inhibition. The data given testify their moderate or high antagonistic activity. It is filed as cell-based.
T1 sequence (P50406 whole entry): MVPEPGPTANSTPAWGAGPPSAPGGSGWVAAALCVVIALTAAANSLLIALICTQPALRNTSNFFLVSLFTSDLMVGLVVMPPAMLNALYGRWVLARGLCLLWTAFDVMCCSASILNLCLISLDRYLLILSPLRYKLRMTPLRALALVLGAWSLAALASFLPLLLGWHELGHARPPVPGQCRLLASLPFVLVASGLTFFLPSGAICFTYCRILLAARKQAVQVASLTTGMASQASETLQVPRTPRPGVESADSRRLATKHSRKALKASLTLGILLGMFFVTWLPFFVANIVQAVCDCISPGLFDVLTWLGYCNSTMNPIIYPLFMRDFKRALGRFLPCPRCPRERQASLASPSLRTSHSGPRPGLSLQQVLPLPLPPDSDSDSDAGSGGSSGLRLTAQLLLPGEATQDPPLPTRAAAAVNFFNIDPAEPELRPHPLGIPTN

In experiment [2] the target is T1, 5-hydroxytryptamine receptor 6. Nature of the experiment: Mol. Pharmacol. 43:320-327, 1993].

Consider `CSc1nn2c(C)c(Br)c(C)nc2c1S(=O)(=O)c1ccccc1`, for which the 50% inhibitory concentration (IC50) in experiment [1] is 8.4 µM; in experiment [2], 50 nM.
